Measured values as given in the NIST ThermoML archive (doi:10.1021/je0301895).
± gives the expanded uncertainty stated by the source.

How the values were obtained:
[1] = xn = mol fraction of the nth substance listed; conditions: 298.15 K, 101 kPa, Liquid
[2] = 298.15 K; 101.33 kPa; Liquid
[3] = Solid-liquid equilibrium temperature; conditions: 101.3 kPa; Crystal

CCCCCCCCN [1-octanamine] + CCCCCCCCCCCO
[1]
Conditions | excess molar volume [m3/mol]
x2 = 0.0752 | -2.147e-07 ± 2.1e-08
x2 = 0.1043 | -2.984e-07 ± 2.2e-08
x2 = 0.1334 | -3.833e-07 ± 2.2e-08
x2 = 0.2069 | -5.724e-07 ± 2.3e-08
x2 = 0.3217 | -8.29e-07 ± 2.5e-08
x2 = 0.4007 | -9.437e-07 ± 2.6e-08
x2 = 0.4491 | -9.846e-07 ± 2.6e-08
x2 = 0.4941 | -1.008e-06 ± 2.6e-08
x2 = 0.5463 | -1.008e-06 ± 2.6e-08
x2 = 0.5958 | -9.803e-07 ± 2.6e-08
x2 = 0.639 | -9.391e-07 ± 2.6e-08
x2 = 0.6894 | -8.58e-07 ± 2.5e-08
x2 = 0.7458 | -7.411e-07 ± 2.4e-08
x2 = 0.7961 | -6.06e-07 ± 2.4e-08
x2 = 0.873 | -4.122e-07 ± 2.2e-08
x2 = 0.9158 | -2.804e-07 ± 2.2e-08

CCCCCCCCCO [nonan-1-ol]
Conditions | Solid-liquid equilibrium temperature [K] | mass density [kg/m3]
[2] | – | 824.6 ± 0.28
[3] | 268.1 ± 0.4 | –

CCCCCCCCN [1-octanamine] + CCCCCCCCCCO
[1]
Conditions | excess molar volume [m3/mol]
x2 = 0.0791 | -2.401e-07 ± 2.1e-08
x2 = 0.1302 | -3.963e-07 ± 2.2e-08
x2 = 0.2056 | -6.005e-07 ± 2.4e-08
x2 = 0.2788 | -7.66e-07 ± 2.5e-08
x2 = 0.3263 | -8.612e-07 ± 2.5e-08
x2 = 0.3863 | -9.584e-07 ± 2.6e-08
x2 = 0.422 | -1.002e-06 ± 2.6e-08
x2 = 0.4623 | -1.03e-06 ± 2.6e-08
x2 = 0.5138 | -1.042e-06 ± 2.6e-08
x2 = 0.5525 | -1.039e-06 ± 2.6e-08
x2 = 0.5811 | -1.023e-06 ± 2.6e-08
x2 = 0.6153 | -9.952e-07 ± 2.6e-08
x2 = 0.6452 | -9.534e-07 ± 2.6e-08
x2 = 0.6956 | -8.646e-07 ± 2.5e-08
x2 = 0.7565 | -7.349e-07 ± 2.4e-08
x2 = 0.8463 | -4.965e-07 ± 2.3e-08
x2 = 0.9025 | -3.208e-07 ± 2.2e-08
x2 = 0.97 | -1.278e-07 ± 2.1e-08

CCCCCCCCN [1-octanamine]
Conditions | Solid-liquid equilibrium temperature [K] | mass density [kg/m3]
[2] | – | 779.95 ± 0.84
[3] | 273.37 ± 0.4 | –

CCCCCCCCCCCO [1-undecanol]
Conditions | Solid-liquid equilibrium temperature [K] | mass density [kg/m3]
[2] | – | 829.34 ± 0.28
[3] | 289.63 ± 0.8 | –

CCCCCCCCN [1-octanamine] + CCCCCCCCO
[1]
Conditions | excess molar volume [m3/mol]
x2 = 0.043 | -1.921e-07 ± 2.1e-08
x2 = 0.13 | -4.625e-07 ± 2.3e-08
x2 = 0.2358 | -7.264e-07 ± 2.4e-08
x2 = 0.3041 | -8.581e-07 ± 2.5e-08
x2 = 0.347 | -9.393e-07 ± 2.6e-08
x2 = 0.4158 | -1.024e-06 ± 2.6e-08
x2 = 0.4571 | -1.062e-06 ± 2.6e-08
x2 = 0.5174 | -1.071e-06 ± 2.6e-08
x2 = 0.554 | -1.068e-06 ± 2.6e-08
x2 = 0.5877 | -1.052e-06 ± 2.6e-08
x2 = 0.6385 | -1.012e-06 ± 2.6e-08
x2 = 0.709 | -9.034e-07 ± 2.5e-08
x2 = 0.7589 | -8.079e-07 ± 2.5e-08
x2 = 0.875 | -5.102e-07 ± 2.3e-08
x2 = 0.929 | -3.207e-07 ± 2.2e-08
x2 = 0.992 | -7.24e-08 ± 2e-08

CCCCCCCCCCO [decan-1-ol]
Conditions | Solid-liquid equilibrium temperature [K] | mass density [kg/m3]
[2] | – | 826.64 ± 0.28
[3] | 278.67 ± 0.4 | –

CCCCCCCCO [octan-1-ol]
Conditions | Solid-liquid equilibrium temperature [K] | mass density [kg/m3]
[2] | – | 822.21 ± 0.28
[3] | 258.03 ± 0.4 | –

CCCCCCCCN [1-octanamine] + CCCCCCCCCO
[1]
Conditions | excess molar volume [m3/mol]
x2 = 0.0489 | -1.701e-07 ± 2.1e-08
x2 = 0.1572 | -4.742e-07 ± 2.3e-08
x2 = 0.2155 | -6.354e-07 ± 2.4e-08
x2 = 0.2763 | -7.661e-07 ± 2.5e-08
x2 = 0.3283 | -8.704e-07 ± 2.5e-08
x2 = 0.356 | -9.277e-07 ± 2.6e-08
x2 = 0.4125 | -1.005e-06 ± 2.6e-08
x2 = 0.4566 | -1.043e-06 ± 2.6e-08
x2 = 0.4998 | -1.055e-06 ± 2.6e-08
x2 = 0.5326 | -1.057e-06 ± 2.6e-08
x2 = 0.5732 | -1.049e-06 ± 2.6e-08
x2 = 0.6064 | -1.016e-06 ± 2.6e-08
x2 = 0.637 | -9.761e-07 ± 2.6e-08
x2 = 0.6602 | -9.511e-07 ± 2.6e-08
x2 = 0.7321 | -8.074e-07 ± 2.5e-08
x2 = 0.7905 | -6.629e-07 ± 2.4e-08
x2 = 0.8753 | -4.313e-07 ± 2.3e-08
x2 = 0.961 | -1.661e-07 ± 2.1e-08
